# Results: US20210198284A1, “GOLD COMPOSITIONS AND METHODS OF USE THEREOF” (THE UNIVERSITY OF MASSACHUSETTS, priority 2018, published 2021)
# Like-named read-outs stand apart in the source and are kept apart here.
# How the values were obtained:
# [1] = Log P determination (n-octanol/water, FAAS)
# Protocol: Log P Determination: Calibration curves. Milli-Q Water (150 mL) was added to n-octanol (150 mL), and the mixture was stirred for 3 days to allow both phases to reach saturation. The gold standard solution (1000 ppm Au in hydrochloric acid, Fisher Scientific) was diluted to 1, 2, 3, 4 and 5 ppm with n-octanol-saturated water, and the absorbance of the resulting solutions was measured by flame atomic absorption spectroscopy (FAAS, Agilent Technology 200 Series AA, equipped with a gold HC Lamp-Au coded). The absorbance data were plotted against Au concentration, and the resulting calibration curve was used for determining the concentration of the analogs in the aqueous phase.
# To construct the standard calibration curve of the Au concentration in the n-octanol phase, compound 27 was used. The Au concentration in compound 27 was first calibrated against the aqueous gold standard. For this, 0.440 mg of compound 27 was weighed on a Sartorius MC5 microbalance, and then added to 22 mL of n-octanol-saturated water. […] For this, solutions of varying concentrations (0.99, 2.47, 4.94, 5.93, 9.88 ppm) of compound 27 in water-saturated n-octanol were prepared. The absorbance was measured by FAAS, and the data were plotted against the Au concentration to provide a second calibration curve, which was used for determining the Au concentration of the analogs in the n-octanol phase.
# Determination of Au concentrations: Method 1. 0.5 to 1 mg of compound was weighed into a 2-mL Eppendorf tube containing 2 mL of n-octanol-saturated water. After shaking for about 4 h, the solution was centrifuged at 6000 rpm for 3 min. 1 mL of the supernatant was transferred to a new tube containing 1 mL of water-saturated n-octanol, and the mixture was shaken for 1 h. After centrifugation at 6000 rpm for 5 min, the two layers were collected and the gold concentration in each layer was determined by FAAS by comparing the absorbance to the first and second calibration curves.
# Determination of Au concentrations: Method 2. […] For Method 2, 0.6 to 1 mg of compound was weighed into a 2-mL Eppendorf tube containing 1 mL of n-octanol-saturated water and 1 mL of water-saturated n-octanol. After shaking for 3-4 h, the mixture was centrifuged, and all liquid was transferred to a 15-mL tube. The liquid was then diluted with 2 mL of n-octanol-saturated saturated water and 2 mL of water-saturated n-octanol, and the mixture was shaken for another hour. After centrifugation at 6000 rpm for 5 min, the two layers were collected and the gold concentration in each layer was determined by FAAS by comparing the absorbance to the first and second calibration curves.
# Log P was calculated as follows: log P=log[compound]oct/[compound]water
# E. faecalis ATCC 700221 = assay: Antibacterial assay, MIC/MBC by broth microdilution (CLSI); type: cell-based; details: for MIC: repeated twice, a/b = both values
# Protocol: (§1) Antibacterial assay. The minimum inhibitory concentrations (MICs) and the minimum bactericidal concentrations (MBCs) were determined by the broth microdilution method as described in the CLSI (The Clinical & Laboratory Standards Institute) guidelines (Performance standards for antimicrobial susceptibility testing: Clinical and Laboratory Standards Institute (CLSI), Twenty-Fifth informational supplement. Document M100-S25: […]; Vol. 35). All bacterial strains were cultured in cation-adjusted Muller Hinton broth (CAMHB) up to log-phase and then diluted to give a concentration of 7.5×10^5 CFU/mL. The gold complexes were dissolved in DMSO or water as stock solutions, which were then serially diluted two-fold in a 96-well plate. Aliquots (100 μL) of the dilutions were mixed with equal volumes of the bacterium suspension in a 96 well plate (in triplicates). The plates were incubated at 37° C. for 18 h without shaking. Negative and positive controls were included in the same well plate with wells having the culture medium only and bacteria solution only, respectively. The sample concentration that gave inhibition values above 90% were determined as MICs as calculated from absorbance values at 600 nm (OD600) obtained using a Tecan SPARK IOM plate reader. To determine minimum bactericidal concentrations (MBCs), agar plates were treated with 5 μL sample solutions from each well, and then incubated at 37° C. for 18 h without shaking. The sample concentration that gave no colony formed on agar plates were determined as MBCs.
# (§2) Selection of bacteria. The ESKAPE pathogens were chosen as they are responsible for the majority of nosocomial infections and also as they provide a good scope of strains including both Gram-negative and Gram-positive species. A. baumannii NCTC 13420 was originally identified in 24 hospitals in the UK during 2000-2003, which produced OXA-51-like β-lactamases, and was highly resistant to ampicillin, piperacillin, piperacillin/tazobactam, ceftazidime, cefotaxime, gentamicin and ciprofloxacin. P. aeruginosa NCTC13437 produces VIM-10 metallo-carbapenemase and VEB-1 (Vietnamese extended-spectrum beta-lactamase). Wild-type strain E. cloacae NCTC 13405 (originally named E. cloacae 684) was isolated from patients at the London Hospital during 1982-1983. This strain has inducible AmpC β-lactamase and is resistant to ampicillin/amoxicillin and cefoxitin. K. pneumoniae ATCC 700603 was isolated from the urine of a hospitalized patient in Richmond, Va. in 1994, and it produces SHV-18 extended spectrum beta-lactamase (ESBL). JE2 (USA300) is a methicillin-resistant S. aureus (MRSA) strain, also resistant to beta-lactams, ciprofloxacin, tetracycline, macrolides (erythromycin), lincosamides (clindamycin), streptogramin B, and mupirocin. E. faecium ATCC 700221, a positive fecal VRE (vancomycin-resistant enterococcus) isolate, is resistant to several antibiotics including vancomycin and teicoplanin. The quality control strain, Gram-negative E. coli ATCC 25922, was included in all assays and validated with ciprofloxacin and […].
# A. baumannii NCTC 13420 = assay: as above; type: cell-based; details: A. baumannii NCTC 13420; for MIC: repeated twice, a/b = both values
# Protocol: as §1, §2
# E. coli ATCC 25922 = assay: as above; type: cell-based; details: for MIC: repeated twice, a/b = both values
# Protocol: as §1, §2
# E. cloacae NCTC 13405 = assay: as above; type: cell-based; details: E. cloacae NCTC 13405; for MIC: repeated twice, a/b = both values
# Protocol: as §1, §2
# [2] = tested on: K. pneumoniae ATCC 700603; assay: as above; type: cell-based; details: K. pneumoniae ATCC 700603; for MIC: repeated twice, a/b = both values
# Protocol: as §1, §2
# P. aeruginosa NCTC 13437 = assay: as above; type: cell-based; details: P. aeruginosa NCTC 13437; for MIC: repeated twice, a/b = both values
# Protocol: as §1, §2
# S. aureus JE2 (USA300) = assay: as above; type: cell-based; details: S. aureus JE2 (USA300); for MIC: repeated twice, a/b = both values
# Protocol: as §1, §2
# A549 cells = assay: Cytotoxicity assay (resazurin); type: cell-based; details: 20 h, mean±S.E.M. from two independent experiments
# Protocol: Sample preparation. The compounds were dissolved in DMSO at 12.8 mg/mL as the stock solutions, except for compounds 9-17, which were directly dissolved in the culture medium at 12.8 mg/mL. The stock solutions were diluted by the culture medium to the testing concentration at 128 μg/mL (compound 9-17 were diluted to 1,280 μg/mL). The solutions were then serially diluted two fold in a 96-well plate and were used in the cytotoxicity assay immediately.
# Cell culture and cytotoxicity assay. A549 cells (ATCC CCL-185) were cultured in high glucose DMEM (Sigma-Aldrich, D6429) supplemented with 10% FBS, 1% penicillin-streptomycin solution (Sigma-Aldrich, P4333), 1% gentamicin solution (Sigma-Aldrich, G1272) and 1% amphotericin B solution (Sigma-Aldrich, A2942) at 37° C. in a humidified atmosphere containing 5% CO2. After cells reached 80%˜90% confluency, they were detached and counted using an Invitrogen Countess automated cell counter. Cells with viability over 90% were seeded at a density of 5×10^3 cells per well in 96-well cell culture plates. After overnight culture, the culture medium in each well removed with a pipet. 80 μL of the compound solutions from each well of the 96-well plate prepared above were transferred to this 96-well plate containing the cells, and the plates were incubated for 20 h. After addition of 8 μL of 110 μg/mL resazurin, the plates were incubated for further 3 h at 37° C. in 5% CO2. The fluorescence intensity was measured using a Tecan M200 Infinite Pro microplate reader at excitation 560 nm, emission 590 nm. IC50 were calculated by curve fitting the inhibition values vs. log(concentration) using GraphPad's Prism. The cytotoxicity assays (in triplicate) were repeated twice using freshly prepared cells and compound solutions.
Substance,Log P [1],MBC (in brackets) (E. faecalis ATCC 700221),MBC (in brackets) (A. baumannii NCTC 13420),MIC (A. baumannii NCTC 13420),MBC (in brackets) (E. coli ATCC 25922),MIC (E. coli ATCC 25922),MBC (in brackets) (E. cloacae NCTC 13405),MIC (E. cloacae NCTC 13405),MBC (in brackets) [2],MIC [2],MBC (in brackets) (P. aeruginosa NCTC 13437),MIC (P. aeruginosa NCTC 13437),MBC (in brackets) (S. aureus JE2 (USA300)),MIC (S. aureus JE2 (USA300)),IC50 against A549 cells (A549 cells),"Log P ([1]; n-octanol/water, gold by FAAS)",MIC (E. faecalis ATCC 700221)
(1-Thio-β-D-galatopyranosato)(triethylphosphine) gold(I) [Compound 10],−0.73,(0.5) μM/mL,31 (31) μM/mL,31 (31) μM/mL,16 (16) μM/mL,16 (16) μM/mL,63 (63) μM/mL,63 (63) μM/mL,251 (251) μM/mL,251 (251) μM/mL,251 (251) μM/mL,251 (251) μM/mL,(0.1) μM/mL,0.02 μM/mL,16.9 ± 0.5 µg/mL,,
(Tris(4-methoxyphenyl)phosphine) gold chloride [Compound 32],,3 (3) μM/mL,,>438 μM/mL,,>438 μM/mL,,>438 μM/mL,,>438 μM/mL,,>438 μM/mL,3 μM/mL,2 μM/mL,9.4 ± 1.7 µg/mL,>4.09,3 (3) μM/mL
(2-Acetamido-2-deoxy-1-thio-β-D-glucopyranosato)(trimethylphosphine) gold(I) [Compound 17],−2.03,(0.5) μM/mL,16 μM/mL,16/8,(31) μM/mL,8/31,16 μM/mL,8/16,126 μM/mL,31 μM/mL,,>503 μM/mL,0.5 (0.5) μM/mL,0.5 (0.5) μM/mL,35.5 ± 0.9 µg/mL,,
(Tris(4-trifluoromethylphenyl)phosphine) gold chloride [Compound 34],,,,>366 μM/mL,,>366 μM/mL,,>366 μM/mL,,>366 μM/mL,,>366 μM/mL,11 μM/mL,3/1,85.6 ± 26.1 µg/mL,>3.94,>366 μM/mL
[β-D-galactopyranosyl-(1→4)-β-D-glucopyranosato](triethylphosphine) gold(I) [Compound 13],,(0.4) μM/mL,,24/48,24 (24) μM/mL,24 (24) μM/mL,190 (190) μM/mL,190 (190) μM/mL,381 (381) μM/mL,381 (381) μM/mL,381 (381) μM/mL,381 (381) μM/mL,5 (0.09) μM/mL,,32.9 ± 4.6 µg/mL,,0.09 μM/mL
(Triphenylphosphine) gold chloride [Compound 31],,4 (4) μM/mL,,,,>518 μM/mL,,>518 μM/mL,,>518 μM/mL,,>518 μM/mL,4 μM/mL,1/2,12.0 ± 1.8 µg/mL,>3.94,4 (4) μM/mL
